How the values were obtained:
h12/15-LOX [1] = target: T1, h12/15-LOX (Homo sapiens, UniProt P16050); experiment: Lipoxygenase UV-Vis-based IC50 assay; type: biochemical; details: for loss of potency against h12/15-LOX relative to parent: SAR comparison of IC50 values
T1 sequence (P16050 1-662): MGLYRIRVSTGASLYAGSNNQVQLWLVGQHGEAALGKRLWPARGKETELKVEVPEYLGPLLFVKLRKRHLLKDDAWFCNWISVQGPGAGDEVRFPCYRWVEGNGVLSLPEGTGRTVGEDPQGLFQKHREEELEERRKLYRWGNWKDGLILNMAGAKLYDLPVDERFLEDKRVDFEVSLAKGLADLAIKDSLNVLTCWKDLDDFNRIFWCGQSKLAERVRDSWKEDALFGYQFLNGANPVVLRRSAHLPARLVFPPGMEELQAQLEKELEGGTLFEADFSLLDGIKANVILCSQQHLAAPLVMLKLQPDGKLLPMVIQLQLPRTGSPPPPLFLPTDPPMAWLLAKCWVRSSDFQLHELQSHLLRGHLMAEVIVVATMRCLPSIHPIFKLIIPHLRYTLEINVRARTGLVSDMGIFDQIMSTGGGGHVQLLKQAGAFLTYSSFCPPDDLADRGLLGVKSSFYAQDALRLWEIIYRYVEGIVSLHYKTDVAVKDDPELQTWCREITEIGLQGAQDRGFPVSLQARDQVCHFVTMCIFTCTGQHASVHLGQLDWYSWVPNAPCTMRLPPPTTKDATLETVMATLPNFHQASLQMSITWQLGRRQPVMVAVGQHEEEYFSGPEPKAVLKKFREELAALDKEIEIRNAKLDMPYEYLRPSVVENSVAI

[2] = cited from earlier work
[3] = test system: dog ortholog of 12/15-LOX; details: cited from earlier work
[4] = test system: rat ortholog of 12/15-LOX; details: cited from earlier work
[5] = cited from earlier work; remark: listed apart in the source
HT-22 cells = experiment: HT-22 cellular assay; type: cell-based; details: Mus musculus, HT-22, read-out: approximate cellular EC50 (ex vivo IC50) in HT-22
[6] = Solubility limit of inhibitor in enzyme assay; type: physicochemical; details: concentrations above 35 µM
h12/15-LOX [7] = target: T1, h12/15-LOX; experiment: Pseudoperoxidase assay; details: 20 µM inhibitor, 20 µM 13-HpODE, 60 nM enzyme
h12/15-LOX [8] = target: T1, h12/15-LOX; experiment: Steady-state inhibition kinetics
[9] = cited from earlier work; remark: listed apart in the source
[10] = test system: rabbit reticulocyte 12/15-LOX; details: cited from earlier work
h5-LOX = target: T2, h5-LOX (Homo sapiens, UniProt P09917); experiment: Selectivity assay; type: biochemical; details: read-out: inhibition of h5-LOX (positive control)
T2 sequence (P09917 1-674): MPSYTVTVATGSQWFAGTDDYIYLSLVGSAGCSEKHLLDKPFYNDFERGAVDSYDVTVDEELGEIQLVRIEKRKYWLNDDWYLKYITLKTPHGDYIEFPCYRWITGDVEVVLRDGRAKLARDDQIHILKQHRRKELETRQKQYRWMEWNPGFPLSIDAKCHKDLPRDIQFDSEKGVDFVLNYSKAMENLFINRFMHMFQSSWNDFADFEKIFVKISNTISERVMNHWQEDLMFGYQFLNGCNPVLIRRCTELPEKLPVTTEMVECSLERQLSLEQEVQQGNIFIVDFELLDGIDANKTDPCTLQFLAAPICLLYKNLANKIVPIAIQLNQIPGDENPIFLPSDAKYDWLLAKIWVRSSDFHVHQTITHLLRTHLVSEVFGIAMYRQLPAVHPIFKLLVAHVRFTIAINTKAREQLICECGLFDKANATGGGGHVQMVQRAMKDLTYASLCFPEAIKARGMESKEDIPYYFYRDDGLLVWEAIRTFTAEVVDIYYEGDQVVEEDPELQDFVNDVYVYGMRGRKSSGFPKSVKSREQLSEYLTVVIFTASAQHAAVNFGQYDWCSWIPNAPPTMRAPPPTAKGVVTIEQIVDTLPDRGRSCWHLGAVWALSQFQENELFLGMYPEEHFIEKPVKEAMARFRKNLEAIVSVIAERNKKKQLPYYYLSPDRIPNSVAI

Q: Which “loss of potency against h12/15-LOX relative to parent” value (h12/15-LOX [1]) does the source give for `Cc1ccc(-c2cc(-c3ccc(C)cc3O)[nH]n2)cc1` [Compound 18] here?
A: greater than 15 fold

Q: For `O=C(OCC#CCSc1nnc(-c2cccc3ccccc23)o1)c1cccs1` [ML094, 4-(5-(Naphthalen-1-yl)-1,3,4-oxadiazol-2-ylthio)but-2-ynylthiophene-2-carboxylate], which “activity in cell-based assays” value [2] is on record?
A: lacks activity

Q: Which results are given for `O=C(Nc1ccc(F)cc1Cl)c1c[nH]nn1` [BLX-2477, N-(2-chloro-4-fluorophenyl)triazole-4-carboxamide]?
A: potency against dog ortholog [3]: did not exhibit potency; potency against rat ortholog [4]: did not exhibit potency; off-target effects in mini-pigs [5]: adverse off-target effects

Q: With `Cc1ccc(O)c(-c2cc(-c3ccccc3C)[nH]n2)c1` [Compound 99089] as the compound, how does the inhibition at 20 µM (h12/15-LOX [1]; read-out: %Inhibition (20 µM), 20 µM inhibitor, 10 µM AA, 0.01% Triton X-100) read?
A: > 90%

Q: What about the EC50 (HT-22 cells) of the same compound?
A: ~10 µM

Q: What about the “solubility in assay buffer” value [6] of the same compound?
A: solubility problems

Q: And the “degradation of 13-HpODE (redox activity)” value (h12/15-LOX [7])?
A: not observed

Q: And the Ki (h12/15-LOX [8])?
A: 6 ± 3.3 µM

Q: And the mode of inhibition (h12/15-LOX [8]; steady-state kinetics)?
A: mixed type inhibitor

Q: Which “loss of potency against h12/15-LOX relative to parent” value (h12/15-LOX [1]) does the source give for `Cc1ccc(O)c(-c2cc(C(=O)NCc3ccccc3)[nH]n2)c1` [Compound 3] here?
A: over 10 fold

Q: For `CNc1oc(-c2cccc3ccccc23)nc1C#N` [ML351, 5-(methylamino)-2-(naphthalene-1-yl)oxazole-4-carbonitrile], which “in vivo activity in mice” value [9] is on record?
A: exhibits in vivo activity

Q: Which IC50 [10] does the source give for `c1ccc2c(c1)SCc1c-2[nH]c2ccccc12` [PD-146176] here?
A: 0.81 µM

Q: For `CC(c1cc2ccccc2s1)N(O)C(N)=O` (stereo not shown) [Zileuton], which inhibition at 20 µM (h5-LOX) is on record?
A: 97%

Q: Which “loss of potency against h12/15-LOX relative to parent” value (h12/15-LOX [1]) does the source give for `COc1ccc(C(=O)c2c[nH]nc2-c2cc(C)ccc2O)cc1` [Compound 4] here?
A: over 10 fold

— publication PMC4778748 (Bioorganic & medicinal chemistry, 2016)
